The values that follow come from US20250129018A1, “PLEUROMUTILIN DERIVATIVES CONTAINING CYCLOALKYL GROUP AND PREPARATION METHODS AND APPLICATIONS THEREOF” (priority 2023, published 2025).

Holding throughout (experiment): MIC, two-fold serial dilution method
One assay relates to MRSE. It counts as cell-based, Methicillin-resistant Staphylococcus epidermidis. As to the method:
(§1) The pleuromutilin derivatives 1-4 prepared from Example 9 of the present disclosure were determined for their effect on Methicillin-resistant Staphylococcus aureus, Methicillin-resistant Staphylococcus epidermidis, standard strains of Staphylococcus aureus (S. aureus-29213 and S. aureus-25923), clinical strains 1-48 of S. aureus, Escherichia coli, S. agalactiae and S. dysgalactiae equisimilis (S. dysgalactiae-1, S. dysgalactiae-2, S. dysgalactiae-3) and minimum inhibitory concentration (MIC) using a two-fold serial dilution method, and the results were shown in Table 1, Table 2 and Table 3. The standard strains are commercially available from ATCC, and the clinical strains are preserved by Lanzhou Institute of Husbandry and Pharmaceutical Science of Chinese Academy of Agricultural Sciences (Lanzhou, Gansu, China).

The next assay has as its system S. dysgalactiae-2. It counts as cell-based, S. dysgalactiae equisimilis. The note with it: S. dysgalactiae-2. As to the method:
as §1

The subject of another assay is S. dysgalactiae-3. It counts as cell-based, S. dysgalactiae equisimilis. The following applies: S. dysgalactiae-3. As to the method:
as §1

The subject of another assay is S. dysgalactiae-1. It counts as cell-based, S. dysgalactiae equisimilis. The following applies: S. dysgalactiae-1. As to the method:
as §1

Another assay has as its system S. agalactiae-1. It counts as cell-based. The note with it: S. agalactiae-1. As to the method: as §1
Another assay concerns S. aureus-29213. Format: cell-based, Staphylococcus aureus. The note with it: S. aureus-29213. As to the method: as §1
A further assay deals with S. aureus-25923. Format: cell-based, Staphylococcus aureus. The following applies: S. aureus-25923. As to the method: as §1
In another assay the test system is MRSA-337371. It counts as cell-based, Methicillin-resistant Staphylococcus aureus. The note with it: MRSA-337371. As to the method: as §1
A further assay deals with E. coli-25922. It counts as cell-based, Escherichia coli. The note with it: E. coli-25922. As to the method: as §1

≈ marks a conversion by molar mass, not a printed value.

`C=CC1(C)CC(OC(=O)CSC(C)(C)CNC(=O)C2CC2)C2(C)C(C)CCC3(CCC(=O)C32)C(C)C1O` (stereo not drawn) [derivative 1]: the minimum inhibitory concentration in the assay with MRSE, in the assay on S. dysgalactiae-2, in the assay on S. dysgalactiae-3, with S. dysgalactiae-1, in the assay on S. agalactiae-1 and in the assay with S. aureus-29213 was 0.031 µg/mL (≈ 0.0581 µM) throughout. For the same compound, the minimum inhibitory concentration was 0.031 µg/mL (≈ 0.0581 µM) in the assay with S. aureus-25923, 0.031 µg/mL (≈ 0.0581 µM) in the assay with MRSA-337371 and >16 µg/mL in the assay on E. coli-25922.

For the compound `C=CC1(C)CC(OC(=O)CSC(C)(C)CNC(=O)C2CCCC2)C2(C)C(C)CCC3(CCC(=O)C32)C(C)C1O` (stereo not drawn) [derivative 3], the minimum inhibitory concentration in the assay on MRSE turned out to be 0.25 µg/mL (≈ 0.445 µM); with S. dysgalactiae-2, 0.125 µg/mL (≈ 0.222 µM); in the assay with S. dysgalactiae-3, 0.125 µg/mL (≈ 0.222 µM); with S. dysgalactiae-1, 0.125 µg/mL (≈ 0.222 µM); with S. agalactiae-1 it was 0.125 µg/mL (≈ 0.222 µM); with S. aureus-29213, 0.125 µg/mL (≈ 0.222 µM). Further, the minimum inhibitory concentration with S. aureus-25923 is 0.125 µg/mL (≈ 0.222 µM); in the assay on MRSA-337371 it was 0.25 µg/mL (≈ 0.445 µM); in the assay with E. coli-25922, >16 µg/mL.

`C=CC1(C)CC(OC(=O)CSC(C)(C)CNC(=O)C2CCCCC2)C2(C)C(C)CCC3(CCC(=O)C32)C(C)C1O` (stereo not drawn) [derivative 4]: the minimum inhibitory concentration was determined as 0.25 µg/mL (≈ 0.434 µM) with MRSE; 0.125 µg/mL (≈ 0.217 µM) with S. dysgalactiae-2; 0.125 µg/mL (≈ 0.217 µM) in the assay with S. dysgalactiae-3; 0.125 µg/mL (≈ 0.217 µM) in the assay on S. dysgalactiae-1; 0.125 µg/mL (≈ 0.217 µM) with S. agalactiae-1; 0.125 µg/mL (≈ 0.217 µM) with S. aureus-29213. Moreover, the values for the minimum inhibitory concentration with S. aureus-25923, with MRSA-337371 and in the assay on E. coli-25922 were 0.125 µg/mL (≈ 0.217 µM), 0.125 µg/mL (≈ 0.217 µM) and >16 µg/mL, respectively.
